Source: US20240252694A1, “CONJUGATES COMPRISING COVALENT BINDERS FOR TARGETING INTRACELLULAR KRAS G12C PROTEINS” (RayzeBio, Inc., priority 2021, published 2024)
Like-named read-outs stand apart in the source and are kept apart here.

How the values were obtained:
[1] = tested on: human ERK1 dually phosphorylated at T202/Y204 and ERK2; test: Phosphorylated ERK1/ERK2 ELISA; format: cell-based; details: phosphorylated ERK in cell lysates after treatment with compounds, sandwich ELISA, cell line not stated
Description: An ERK phosphorylation ELISA kit was used to characterize compounds for KRAS-based cell activity. The sandwich ELISA (RnD Systems. Catalog #DYC1018B) measures human ERK1 that is dually phosphorylated at T202/Y204 and ERK2. Cell lysates from cells before and after treatment with compounds were prepared using kit manufacturer protocols.
All reagents were prepared following the kit's protocol. The wells of a 96-well microtiter plate were coated with 100 μL of 8.0 μg/mL of capture antibody in PBS. The plate was sealed and left to incubate overnight at ambient temperature. After incubation, the wells were washed with 400 μL of Wash Buffer for a total of 3 washes. Wells were then blocked by adding 300 μL of Block Buffer to each well and incubated at ambient temperature for 1-2 hours. After removal of the Block Buffer by aspirating and washing, 100 μL of standards and samples were added to the plate in duplicates and incubated for 2 hours at ambient temperature. The aspiration and wash steps were repeated to remove unbound standard and samples and 100 μL of 400 ng/mL detection antibody was applied to each well. After 2 hours at ambient temperature, detection antibody was removed by washing and 100 μL of Streptavidin-HRP was added to each well. Incubation of Streptavidin-HRP was at ambient temperature for 20 minutes, after which Streptavidin-HRP was removed by washing, 100 μL of Substrate Solution was added to each well and incubated for 20 minutes before 50 μL of Stop Solution was added to each well.
The optical density of each well was immediately analyzed at 450 nm with a wavelength correction at 540 nm. The standards were plotted by averaging the optical density for each replicate and fitted with a four-parameter logistic curve fit. Concentrations of phosphorylated ERK in cell lysate samples were determined by extrapolation from the standard curve and then adjusted for any dilution factors.

[2] = target: T1, KRAS (G12C) (Homo sapiens, UniProt P01116, G12C); test: KRAS G12C Nucleotide Exchange Assay (fixed GTP concentration); format: biochemical
T1 construct: purchased BPS Bioscience 79859
Description: A KRAS (G12C) Nucleotide Exchange Assay kit was used to evaluate compound antagonistic binding. The assay kit (BPS Bioscience. Catalog #79859) utilizes KRAS (G12C) labeled with BODIPY-GDP to determine if compounds can affect the nucleotide exchange (GDP to GTP) in KRAS signaling, Compounds were typically characterized using both protocols: fixed GTP concentrations and fixed inhibitor concentrations.
All reagents were prepared following manufacturer's protocol. 5 μL BODIPY-GDP and 10 μL of KRAS buffer were added to each well. A 3-fold serial dilution of compound in 5% DMSO was prepared. Typically, compounds were tested in the range of 0 μM to 50 μM, but the range could be modified depending on the characterization needs. 5 μL of diluted compound was added to the wells and the plate was centrifuged briefly to ensure all components were mixed before incubation at ambient temperature. After incubation for 2 hours, 10 μM GTP and 25 mM EDTA were mixed at a 1:1 ratio and 5 μL was added to the wells. The plate was then incubated for 1 hour at ambient temperature. After incubation, fluorescence was measured at […].
Data was analyzed by plotting fluorescence vs GTP concentration for control wells and compound wells.

[3] = KRAS (G12C) labeled with BODIPY-GDP, fixed GTP concentration, 2 hours compound incubation, fluorescence readout, read-out: IC50

T1 sequence (P01116 1-188 isoform P01116-2 G12C): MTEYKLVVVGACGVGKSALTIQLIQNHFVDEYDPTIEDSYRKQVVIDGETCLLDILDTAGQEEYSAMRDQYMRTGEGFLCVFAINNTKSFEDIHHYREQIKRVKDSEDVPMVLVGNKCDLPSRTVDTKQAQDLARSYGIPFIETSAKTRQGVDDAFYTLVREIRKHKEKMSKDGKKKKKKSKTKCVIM

Compound	IC50 ([1]; Homo sapiens) [nM]	further results
C=CC(=O)N1CCN(c2nc(OC[C@@H]3CCCN3CCC(=O)O)nc3c2CCN(c2cccc4cccc(I)c24)C3)C[C@@H]1CC#N [Ex-10]	< 100	
C=CC(=O)N1CCN(c2nc(OC[C@@H]3CCCN3CCCC(=O)O)nc3c2CCN(c2cccc4cccc(I)c24)C3)C[C@@H]1CC#N [Ex-11, 4-[(2S)-2-[[4-[(3S)-3-(cyanomethyl)-4-prop-2-enoyl-piperazin-1-yl]-7-(8-iodo-1-naphthyl)-6,8-dihydro-5H-pyrido(3,4-d]pyrimidin-2-yl]oxymethyl]pyrrolidin-1-yl]butanoic acid]	< 100	
C=CC(=O)N1CCN(c2nc(OC[C@@H]3CCCN3CCCCOCc3cccc(I)c3)nc3c2CCN(c2cccc4cccc(Cl)c24)C3)C[C@@H]1CC#N [Ex-3]	100 to 1000	IC50 [2, 3]: 1000 to 10000 nM
C=CC(=O)N1CCN(c2nc(OC[C@@H]3CCCN3CCC(C)(C)OC(=O)c3cccc(I)c3)nc3c2CCN(c2cccc4cccc(Cl)c24)C3)C[C@@H]1CC#N [Ex-8, [3-[(2S)-2-[[7-(8-chloro-1-naphthyl)-4-[(3S)-3-(cyanomethyl)-4-prop-2-enoyl-piperazin-1-yl]-6,8-dihydro-5Hpyrido[3,4-d]pyrimidin-2-yl]oxymethyl]pyrrolidin-1-yl]-1,1-dimethyl-propyl]3-iodobenzoate]	100 to 1000	
C=CC(=O)N1CCN(c2nc(OC[C@@H]3CCCN3C)nc3c2CCN(c2cccc4cccc(I)c24)C3)C[C@@H]1CC#N [Ex-9, 2-[(2S)-4-[7-(8-iodo-1-naphthyl)-2-[[(2S)-1-methylpyrrolidin-2-yl]methoxy]-6,8-dihydro-5H-pyrido[3,4-d]pyrimidin-4-yl]-1-prop-2-enoyl-piperazin-2-yl]acetonitrile]	< 100	IC50 [2, 3]: 1000 to 10000 nM
C=CC(=O)N1CCN(c2nc(OC[C@@H]3CCCN3CCOCc3cccc(I)c3)nc3c2CCN(c2cccc4cccc(Cl)c24)C3)C[C@@H]1CC#N [Ex-1, 2-[(2S)-4-[7-(8-chloro-1-naphthyl)-2-[[(2S)-1-[2-[(3-iodophenyl)methoxy]ethyl]pyrrolidin-2-yl]methoxy]-6,8-dihydro-5H-pyrido[3,4-d]pyrimidin-4-yl]-1-prop-2-enoyl-piperazin-2-yl]acetonitrile]	100 to 1000	
C=CC(=O)N1CCN(c2nc(OC[C@@H]3CCCN3CCCOC(=O)c3cccc(I)c3)nc3c2CCN(c2cccc4cccc(Cl)c24)C3)C[C@@H]1CC#N [Ex-4]	< 100	
C=CC(=O)N1CCN(c2nc(OC[C@@H]3CCCN3CCCNC(=O)c3cccc(I)c3)nc3c2CCN(c2cccc4cccc(Cl)c24)C3)C[C@@H]1CC#N [Ex-5, N-[3-[(2S)-2-[[7-(8-chloro-1-naphthyl)-4-[(3S)-3-(cyanomethyl)-4-prop-2-enoyl-piperazin-1-yl]-6,8-dihydro-5H-pyrido[3,4-d]pyrimidin-2-yl]oxymethyl]pyrrolidin-1-yl]propyl]-3-iodo-benzamide]	1000 to 10000	IC50 [2, 3]: 1000 to 10000 nM
C=CC(=O)N1CCN(c2nc(OC[C@@H]3CCCN3CC(O)CO)nc3c2CCN(c2cccc4cccc(I)c24)C3)C[C@@H]1CC#N (some centres unmarked) [Ex-13]	< 100	
C=CC(=O)N1CCN(c2nc(OC[C@@H]3CCCN3CC(CO)CO)nc3c2CCN(c2cccc4cccc(I)c24)C3)C[C@@H]1CC#N [Ex-14, 2-[(2S)-4-[2-[I(2S)-1-[3-hydroxy-2-(hydroxymethyl)propylpyrrolidin-2-yl]methoxy]-7-(8-iodo-1-naphthyl)-6,8-dihydro-5H-pyrido(3,4-d]pyrimidin-4-yl]-1-prop-2-enoyl-piperazin-2-yl]acetonitrile]	< 100	
C=CC(=O)N1CCN(c2nc(OC[C@@H]3CCCN3CCCCCCNC(=O)CN3CCN(CC(=O)O)CCN(CC(=O)O)CCN(CC(=O)O)CC3)nc3c2CCN(c2cccc4cccc(Cl)c24)C3)C[C@@H]1CC#N [CHL-001, 2-[4,7-bis(carboxymethyl)-10-[2-[6-[(2S)-2-[[7-(8-chloro-1-naphthyl)-4-[(3S)-3-(cyanomethyl)-4-prop-2-enoyl-piperazin-1-yl]-6,8-dihydro-5H-pyrido[3,4-d]pyrimidin-2-yl]oxymethyl]pyrrolidin-1-yl]hexylamino]-2-oxo-ethyl]-1,4,7,10-tetrazacyclododec-1-yl]acetic acid]		IC50 [1]: ≥ 10000 nM
C=CC(=O)N1CCN(c2nc(OC[C@@H]3CCCN3CCCOCc3cccc(I)c3)nc3c2CCN(c2cccc4cccc(Cl)c24)C3)C[C@@H]1CC#N [Ex-2, 2-[(2S)-4-[7-(8-chloro-1-naphthyl)-2-[[(2S)-1-[3-[(3-iodophenyl)methoxy]propyl]pyrrolidin-2-yl]methoxy]-6,8-dihydro-5H-pyrido[3,4-d]pyrimidin-4-yl]-1-prop-2-enoyl-piperazin-2-yl]acetonitrile]	100 to 1000	IC50 [2, 3]: 1000 to 10000 nM
C=CC(=O)N1CCN(c2nc(OC[C@@H]3CCCN3CCCCNC(=O)CN3CCN4CCN5CCN(CC3)CC(=O)[O][Lu]([O]C(=O)C4)[O]C(=O)C5)nc3c2CCN(c2cccc4cccc(Cl)c24)C3)C[C@@H]1CC#N [Lu-CHL-003, N-[4-[(2S)-2-[[7-(8-chloro-1-naphthyl)-4-[(3S)-3-(cyanomethyl)-4-prop-2-enoyl-piperazin-1-yl]-6,8-dihydro-5Hpyrido[3,4-d]pyrimidin-2-yl]oxymethyl]pyrrolidin-1-yl]butyl]-2-(3,16,19-trioxo-2,17,18-trioxa-5,8,11,14-tetrazaλ3-lutetatricyclo[9.6.3,25,14]docosan-8-yl)acetamide]		IC50 [2]: < 1000 nM; IC50 [1]: 1000 to 10000 nM
C=CC(=O)N1CCN(c2nc(OC[C@@H]3CCCN3CCCCCCNC(=O)CN3CCN4CCN5CCN(CC3)CC(=O)[O][Lu]([O]C(=O)C4)[O]C(=O)C5)nc3c2CCN(c2cccc4cccc(Cl)c24)C3)C[C@@H]1CC#N [Lu-CHL-001, N-[6-[(2S)-2-[[7-(8-chloro-1-naphthyl)-4-[(3 S)-3-(cyanomethyl)-4-prop-2-enoyl-piperazin-1-yl]-6,8-dihydro-5H-pyrido[3,4-d]pyrimidin-2-yl]oxymethyl]pyrrolidin-1-yl]hexyl]-2-(3,16,19-trioxo-2,17,18-trioxa-5,8,11,14-tetraza-1λ3-lutetatricyclo[9,6,3,25,14]docosan-8-yl)acetamide]		IC50 [2]: 1000 to 10000 nM; IC50 [1]: 1000 to 10000 nM
N-[4-[(2S)-2-[[7-(8-chloro-1-naphthyl)-4-[(3S)-3-(cyanomethyl)-4-prop-2-enoyl-piperazin-1-yl]-6,8-dihydro-5H-pyrido[3,4-d]pyrimidin-2yl]oxymethyl]pyrrolidin-1-yl]butyL]1J-2-[(6S,9S, 12S, 21 S)-6,9,12,21-tetraethyl-3,16,19-trioxo-2,17,18-trioxa-5,8,11,14-tetraza-17,3-lutetatricyclo[9.6.3,25,14]docosan-8-yl]acetamide [Lu-CHL-005]		IC50 [1]: 100 to 1000 nM
C=CC(=O)N1CCN(c2nc(OC[C@@H]3CCCN3CCCC(=O)OCc3cccc(I)c3)nc3c2CCN(c2cccc4cccc(Cl)c24)C3)C[C@@H]1CC#N [Ex-6, (3-iodophenyl)methyl 4-[(2S)-2-[[7-(8-chloro-1-naphthyl)-4-[(3S)-3-(cyanomethyl)-4-prop-2-enoyl-piperazin-1-yl]-6,8-dihydro-5H-pyrido[3,4-d]pyrimidin-2-yl]oxymethyl]pyrrolidin-1-yl]butanoate]	< 100	
C=CC(=O)N1CCN(c2nc(OC[C@@H]3CCCN3CCC(C)(C)C(=O)O)nc3c2CCN(c2cccc4cccc(I)c24)C3)C[C@@H]1CC#N [Ex-12, 4-[(2S)-2-[[4-[(3S)-3-(cyanomethyl)-4-pop-2-enoyl-piperazin-1-yl]-7-(8-iodo-1-naphthyl)-6,8-dihydro-5H-pyrido[3,4-d]pyrimidin-2-yl]oxymethyl]pyrrolidin-1-yl]-2,2-dimethyl-butanoic acid]	< 100	
